One experiment deals with basolateral K+ channels. Nature of the experiment: Basolateral K+ conductance in T84 monolayers permeabilized apically with amphotericin B. It is filed as cell-based, human. On the procedure: Selective mebrane Permeabilization and Measurement of Potassium Conductance of the Basolateral Membrane. The basolateral potassium conductance was measured using the technique developed by Dawson and co-workers. A potassium gradient (mucosal to serosal) was first established across the monolayer using asymmetric mucosal and serosal buffers containing K^+ as the sole permeant ion. The addition of amphotericin B (20 μM) to the mucosal reservoir forms conductive pores in the apical membrane, and thus removes all resistance to transepithelial potassium movement across this membrane. Thus, under the conditions of the experiment, in which the monolayer is short circuited (i.e., voltage-clamped at zero potential) and the transepithehal potassium gradient is constant, the amphotericin-dependent Isc becomes a measure of the rate of the transepithelial potassium flux across basolateral membranes. Changes in short circuit current (Isc), then represent changes in basolateral K^+ conductances (gK). Isc and K^+ conductances were measured using calomel electrodes, 3M KCI-agar bridges, and a voltage clamp (University of Iowa, Iowa City). To generate a voltage-current channel relationships, currents were elicited by 1 sec test potentials from −80 to +80 in 10 mV increments in the asymmetrical high K^+ gluconate solution.
Calculation of Basolateral Membrane K^+ Permeability: Membrane Permeabilities were Calculated According to the Formula:
^PK=(cm/s)=^JK(mM/cm^2·s)/Δ[K^+](mM/cm^3)
where Δ[K^+] is equal to the difference in K^+ concentration (135 mM) between the asymmetric apical and basolateral bathing solutions. Maximal Isc values were converted into K^+ fluxes by dividing by the Faraday constant F (96,500 coulombs/mol) as previously described (Huflejt et al., J. Clin. Invest. 93: 1900-1910 (1994)).
Basolateral K+ transport was examined in T84 monolayers permeabilized apically by pretreatment with amphotericin B. Apical and basolateral buffers contained K+ as the sole permeant ion. All studies were performed with a 135 mM basolaterally directed K+ gradient. This method has been utilized previously to examine both Cl— and K+ transport in T84 cells and HT29-Cl.16E cells. Briefly, ion conductances in the luminal or basolateral membranes of confluent T84 cell monolayers can be assessed separately by selectively permeabilizing the apical or basolateral membrane using the ionophore amphotericin B. This artificially removes all electrical resistance to ion transport across the plasma membrane containing pores formed by amphotericin B. As a result, the intact contralateral plasma membrane becomes rate limiting for transepithelial ion transport. Agonist-dependent changes in ion conductances can be assessed directly either as transepithelial short circuit current (Isc) in the presence of established ion gradients, or as transepithelial conductance (G) in the presence of established transepithelial potentials.

Another experiment has as its system T84 cells. Kind of experiment: Electrogenic Cl- secretion (short circuit current, Isc) in confluent T84 monolayers. It is filed as cell-based, human.
For the next experiment, the system named is basolateral K+ channel. Kind of experiment: 86Rb efflux from T84 monolayers (K+ channel activity). Type of experiment: cell-based, human. On the procedure:
(§1) After four baseline samples were obtained, the cells were treated (at t=8 minutes) with vasoactive intestinal peptide (VIP, […]) or thapsigargin (5 μM) to stimulate Cl^− secretion, and an additional 15 timed samples were obtained. Finally, the cell monolayer was rinsed, cut with its support from the polystyrene ring, and the residual cell-associated radioactivity was determined. Monolayers were maintained at 37° C. in room air throughout the study. ^86Rb was counted by scintillation counting and normalized to percent total uptake as previously described (Venglarik, et al, Am. J. Physiol. (Cell Physiol. 28):C358-C364 (1990).

A further experiment relates to rabbit colonic mucosa. Kind of experiment: Ussing chamber studies using rabbit colonic mucosa. To be noted: clotrimazole 30 μM; forskolin 10 μM. On the procedure:
4 male, New Zealand rabbits (2.5 kg) were anesthetized by an intravenous injection of pentobarbital (0.5 ml/kg). A 15 cm length of distal colon was removed and opened longitudinally. […] The volume of fluid on each side of the mucosa was 7 ml.
Potential difference and Isc were monitored continuously and registered every 10 minutes.

Experiment [1] has as its system basolateral NaK2Cl cotransporters. Nature of the experiment: Bumetanide-sensitive 86Rb uptake in T84 monolayers. The note with it: 33 μM for 30 min.
Experiment [2] has as its system apical membrane Cl- channels. Nature of the experiment: Apical Cl- conductance in T84 monolayers permeabilized basolaterally with amphotericin B. It is filed as cell-based, human. To be noted: symmetrical Cl- 142 mM; forskolin 10 μM.
Experiment [3] relates to apical membrane Cl- channels. Nature of the experiment: 125I efflux from T84 monolayers. Type of experiment: cell-based, human. The protocol: as §1, with “Cl—” for “Cl^−”, “^125I” for “^86Rb”, “gamma” for “scintillation”
The subject of experiment [4] is basolateral NaK2Cl cotransporters.
Experiment [5] concerns intestinal fluid secretion induced by cholera toxin. Type of experiment: in vivo, Balb/C mice.
[6] abbreviates: forskolin 10 μM, carbachol 100 μM.
Setting [7] is: 33 μM, final 30 minutes of preincubation.

Where two headings read alike, the source gives them in different places.

For the compound charybdotoxin, in the experiment with basolateral K+ channels (charybdotoxin 100 nM), the “Effect on K+ transport induced by subsequent addition of forskolin” value was “no detectable effect”. Further, in the experiment with basolateral K+ channels (pretreatment with charybdotoxin 100 nM), the “Inhibition of carbachol induced Ca++ IK” value worked out at 50%. Also, in the experiment with T84 cells, the “Inhibition of Cl- secretory response (Isc) to Ca++-dependent agonist carbachol” value (shortened to “Inhibition … to Ca++-dependent agonist carbachol”) is given as “strongly inhibited” and the “Inhibition of Cl- secretory response (Isc) to cAMP mediated agonist VIP” value (from here on “Inhibition … to cAMP mediated agonist VIP”) is listed as “minimal affects”.
For the compound `OC(c1ccccc1)(c1ccccc1)c1ccccc1Cl` [2-chlorophenyl-bis-phenyl methanol], in the experiment with basolateral K+ channels (setting [6]), the “Inhibition of time course of K+ transport after forskolin and carbachol” value is reported as “Nearly identical results”. Further, the “Inhibition of cAMP and Ca++ elicited chloride secretion” value in the experiment on T84 cells (T84 cells) was “effective at inhibiting chloride secretion”.
For the compound `[Ba+2].[Cl-].[Cl-]` [BaCl2], the “Effect on K+ transport induced by subsequent addition of carbachol” value in the experiment with basolateral K+ channels (carbachol 100 μM, same monolayers, BaCl2 3 mM) is given as “no detectable effect”. Also, the “Inhibition of cAMP-sensitive IK elicited by forskolin” value in the experiment with basolateral K+ channels (forskolin 10 μM, BaCl2 3 mM basolateral) is reported as “greater than 70%”. In the experiment on T84 cells, the “Inhibition … to Ca++-dependent agonist carbachol” value is “no apparent affect” and the “Inhibition … to cAMP mediated agonist VIP” value was “strongly inhibited”.
As to `Clc1ccc(COC(Cn2ccnc2)c2ccc(Cl)cc2Cl)c(Cl)c1` (stereo not shown) [miconazole], in the experiment on T84 cells (T84 cells), the “Inhibition of cAMP and Ca++ elicited chloride secretion” value is listed as “effective at inhibiting chloride secretion”.
On to `Clc1ccccc1C(c1ccccc1)(c1ccccc1)n1ccnc1` [clotrimazole], for which the “Reduction of rate constant for VIP-stimulated 86Rb efflux” value in the experiment on basolateral K+ channel (33 µM) was found to be 87%. The “Rate constant for VIP-stimulated 86Rb efflux” value in the experiment with basolateral K+ channel (33 μM clotrimazole, untreated 0.0465) stood at 0.0062 % uptake/minute. For the same compound, the “Rate constant for thapsigargin-stimulated 86Rb efflux” value in the experiment on basolateral K+ channel (33 μM clotrimazole, untreated 0.048, n=2) came out at 0.011 % uptake/minute. For the same compound, the “Effect of pretreatment on 86Rb loading of the cells” value with basolateral K+ channel (setting [7]) is “did not alter”. Also, in the experiment on basolateral K+ channel (T84 cells with VIP or thapsigargin), the “Inhibition of baseline and Ca++ stimulated 86RB efflux” value is recorded as “significantly inhibited”. In the experiment with rabbit colonic mucosa, the “Inhibition of time course of forskolin induced Isc” value is listed as “inhibited strongly”. For the same compound, the “Reduction of total amount of 86Rb uptake” value in experiment [1] (VIP, mean±SEM, n=6) was found to be 53.6±15.8%. Also, the “Effect on bumetanide-sensitive fractional component of 86Rb uptake” value in experiment [1] (bumetanide 10 μM) is “no effect”. The “Effect on forskolin- or thapsigargin-stimulated Cl- conductances” value in [2] is reported as “no detectable effect”. The “Inhibition of time course of K+ transport after forskolin and carbachol” value with basolateral K+ channels (setting [6]) was “significantly inhibited”. In experiment [3] (33 μM clotrimazole), the “Effect on time course of 125I efflux from monolayers treated with VIP” value is listed as “little or no effect”. The “Effect of pretreatment on 125I loading of the cells” value in experiment [3] (setting [7]) was “did not alter”. In addition, in experiment [3] (VIP, 33 μM clotrimazole, not treated 0.0645, n=2 in duplicate), the “Rate constant for 125I efflux” value is 0.0637 % uptake/minute. For the same compound, the “Bumetanide-sensitive fractional component of 86Rb uptake” value in [4] worked out at 88±3.2 % total uptake. Further, the “Reduction of intestinal fluid secretion induced by cholera toxin” value in [5] (5 hours) came out at 86%. In addition, the “Effect on intestinal secretion in the absence of cholera toxin” value in experiment [5] (mouse, in vivo) is given as “no effect”. In addition, in the experiment with T84 cells (Homo sapiens, T84, read-out: IC50 for inhibition of secretory response to E. Coli heat-stabile toxin), the IC50 was 15 µM. Moreover, in the experiment on T84 cells (T84 cells), the “Inhibition of cAMP and Ca++ elicited chloride secretion” value is recorded as “most potent inhibitor tested”. For the same compound, the “Inhibition … to cAMP mediated agonist VIP” value with T84 cells (T84 cells, VIP 5 nM, BaCl 3 mM, charybdotoxin 100 nM) is recorded as “inhibited”. Moreover, the “Inhibition … to Ca++-dependent agonist carbachol” value with T84 cells (T84 cells, carbachol 100 mM, BaCl 3 mM, charybdotoxin 100 nM) is “inhibited”. In addition, in the experiment with T84 cells (T84 monolayers), the “Apparent potency of inhibition at a fixed time point, basolateral versus apical application” value is recorded as “greater when applied basolaterally than apically” and the “Inhibition with basolateral application alone compared with both sides of the monolayer” value was “almost as effective as incubation on both sides”. Moreover, in the experiment with T84 cells (after 60 min recovery in the presence of 0.01 mg/ml bovine serum albumin, n=4), the “Reversibility of inhibition of Cl- secretion” value is on record as 96±2%. For the same compound, in the experiment with T84 cells (low doses (=10^-7 or less)), the “Potentiation of Cl- secretory responses to either agonist at low doses” value is on record as 5-10%. In addition, the “Inhibition of secretory response to agonists of the cAMP signalling cascade” value in the experiment with T84 cells (preincubation 33 μM, 5 μM VIP, 10 μM forskolin or 3 mM 8Br-cAMP) was “inhibited”. Besides, in the experiment on T84 cells (pretreatment 33 μM, carbachol 100 μM, thapsigargin 5 μM or ionomycin 10 μm), the “Inhibition of Cl- secretory response to Ca++-dependent agonists” value is listed as “inhibited strongly”. Also, the “Inhibition of the synergistic secretory response to VIP plus carbachol” value with T84 cells (same monolayers) is on record as “parallel the inhibition of secretion promoted by Ca^++ agonists alone”.
As to `CC(=O)N1CCN(c2ccc(OCC3COC(Cn4ccnc4)(c4ccc(Cl)cc4Cl)O3)cc2)CC1` (stereo not shown) [ketoconazole], the “Inhibition of cAMP and Ca++ elicited chloride secretion” value in the experiment on T84 cells (T84 cells) is on record as “effective at inhibiting chloride secretion”.
In the case of `C[C@@H]1[C@H](O)[C@@H](C)/C=C/C=C/C=C/C=C/C=C/C=C/C=C/[C@H](O[C@@H]2O[C@H](C)[C@@H](O)[C@H](N)[C@@H]2O)C[C@@H]2O[C@](O)(C[C@@H](O)C[C@@H](O)[C@H](O)CC[C@@H](O)C[C@@H](O)CC(=O)O[C@H]1C)C[C@H](O)[C@H]2C(=O)O` [amphotericin B], the “Increase in conductance on initial permeabilization” value in the experiment on basolateral K+ channels (amphotericin B apical) is recorded as 49±19%.
As to `Clc1ccc(COC(Cn2ccnc2)c2ccc(Cl)cc2Cl)cc1` (stereo not shown) [econazole], the “Inhibition of cAMP and Ca++ elicited chloride secretion” value in the experiment on T84 cells (T84 cells) is listed as “effective at inhibiting chloride secretion”.
Turning to `C[N+](C)(C)CCOC(N)=O` [carbachol], the “Carbachol-induced IscK, carbachol added alone” value with basolateral K+ channels (apically permeabilized monolayers) is recorded as 111.7±7.4 μA/cm^2. Besides, the “Carbachol-induced IscK, carbachol added after forskolin” value in the experiment with basolateral K+ channels (apically permeabilized monolayers, forskolin 10 μM) is reported as 180.7±15.7 μA/cm^2.

For the origin of these results see patent US6495567B1, “Triaryl methane compounds and their use in the treatment of diarrhea and scours” (Beth Israel Deaconess Medical Center, priority 1996, dated 2002).
